Data from patent publication EP3981864A1, “DETERGENT COMPOSITION” (priority 2020, dated 2022).

Assays:
[1] = system: Mycolicibacterium fortuitum αDOX (SEQ ID NO: 14), fatty acid alpha-dioxygenase, K0VM18, N-terminal His-tag variant SEQ ID NO: 275 (comparative); assay: Alpha-dioxygenase activity assay (oxygen consumption, TON); type: biochemical; conditions: fatty acid 100 µM, enzyme 6 ppm, 50 mM HEPES pH 9.0, 37°C; initial rate of oxygen consumption / enzyme concentration
Source text: Mycolicibacterium fortuitum αDOX (SEQ ID NO: 14) is a fatty acid alpha-dioxygenase that converts fatty acids into the corresponding 2-hydroperoxy fatty acids and is included as a comparative example of the present invention. A codon optimized gene (SEQ ID NO: 274) encoding for an alpha-dioxygenase variant (SEQ ID NO: 275), including an N-terminal amino acid sequence containing a His-tag was designed and synthesized by Genscript. After gene synthesis, the protein was expressed and purified. In brief, the complete synthetic gene sequence was subcloned into a pET30a vector using the NdeI/HindIII cloning sites. For heterologous expression, Escherichia coli BL21 (DE3) cells were transformed with the recombinant plasmid and a single colony was inoculated into LB medium containing kanamycin (50 mg/L). A pre-starter culture was then inoculated into flasks containing Magic Media (Thermo Fisher, Catalog # K6803) supplemented with kanamycin (50 mg/L) and incubated at 16 °C for 72 h. At an OD600nm = 0.5 - 1.0, 5-aminolevulinic acid (final concentration 0.5 mM) was added. Cells were harvested by centrifugation at 5000 rpm and 4°C and the pellet was lysed using a bacterial cell lysis buffer (B-PER - Themo Fisher, Waltham, MA). After centrifugation, the supernatant was collected, and the protein was purified by one-step purification using HisPur™ Ni-NTA Spin Columns (Thermo Scientific, Catalog # 88226) and standard protocols known in the art. […]
Reactions with alpha-dioxygenases were performed as follows. […] The reaction was incubated for up to 10 minutes at 37°C with 200 rpm agitation and the conversion was monitored using an oxygen sensor. The TON (in s-1) were calculated as the ratio between the initial rate of oxygen consumption (in µM/s) and the concentration of enzyme (in µM). […]

[2] = target: T1, Arabidopsis thaliana αDOX (SEQ ID NO: 3), fatty acid alpha-dioxygenase, Q9SGH6, variant with N-terminal His-tag, MBP tag and TEV site SEQ ID NO: 253 (Arabidopsis thaliana, UniProt Q9SGH6); assay: as above; type: biochemical; conditions: fatty acid 100 µM, enzyme 6 ppm, 50 mM HEPES pH 9.0, 37°C; initial rate of oxygen consumption / enzyme concentration
T1 construct: His-tag (N); MBP tag (N); TEV protease cleavage site (N); made in house; host or cells: Escherichia coli BL21 (DE3), modified pET28a
T1 sequence (Q9SGH6 1-639): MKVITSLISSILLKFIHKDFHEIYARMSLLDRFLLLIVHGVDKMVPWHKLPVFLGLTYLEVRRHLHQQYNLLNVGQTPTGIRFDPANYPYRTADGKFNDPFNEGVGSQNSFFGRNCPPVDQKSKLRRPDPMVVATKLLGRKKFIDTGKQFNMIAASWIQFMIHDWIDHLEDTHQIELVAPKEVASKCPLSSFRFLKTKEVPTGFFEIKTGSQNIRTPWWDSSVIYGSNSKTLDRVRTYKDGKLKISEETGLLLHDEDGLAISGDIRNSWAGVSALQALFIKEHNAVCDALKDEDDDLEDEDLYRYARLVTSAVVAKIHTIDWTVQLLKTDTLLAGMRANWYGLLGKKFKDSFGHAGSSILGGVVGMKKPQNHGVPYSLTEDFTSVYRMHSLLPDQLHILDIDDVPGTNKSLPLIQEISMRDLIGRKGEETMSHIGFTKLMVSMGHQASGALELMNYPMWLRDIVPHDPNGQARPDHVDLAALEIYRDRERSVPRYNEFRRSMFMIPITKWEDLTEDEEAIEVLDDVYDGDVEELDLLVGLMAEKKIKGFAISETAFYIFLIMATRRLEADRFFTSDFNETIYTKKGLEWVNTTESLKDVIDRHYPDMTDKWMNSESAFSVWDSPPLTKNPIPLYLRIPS
Source text: Arabidopsis thaliana αDOX (SEQ ID NO: 3) is a fatty acid alpha-dioxygenase that converts fatty acids into the corresponding 2-hydroperoxy fatty acids and is included as an example of the present invention. A codon optimized gene (SEQ ID NO: 252) encoding for an alpha-dioxygenase variant was designed and synthesized by Genscript. After synthesis, the gene was cloned into a modified version of pET28a, such as the final plasmid encoded for a αDOX variant including an N-terminal amino acid sequence containing a His-tag, an MBP tag, and a TEV protease cleavage site (SEQ ID NO: 253). For heterologous expression, Escherichia coli BL21 (DE3) cells were transformed with the recombinant plasmid and a single colony was inoculated into LB medium containing kanamycin (50 mg/L). A pre-starter culture was then inoculated into flasks containing TB Media supplemented with kanamycin (50 mg/L) and incubated at 37 °C. At an OD600nm about 4, IPTG (final concentration 0.1 mM) and 5-aminolevulinic acid (final concentration 0.5 mM) were added to the culture and further incubated at 16 °C for 16 h. Cells were harvested by centrifugation and the pellet was lysed. After centrifugation, the supernatant was collected, and the protein was purified by one-step purification using Ni-NTA affinity chromatography and standard protocols known in the art. The protein was stored in 1×PBS buffer containing 10% Glycerol and at pH 7.4. The purified enzyme was stored at -80 °C until use.
Reactions with alpha-dioxygenases were performed as follows. An aliquot of fatty acid in ethanol (final concentration 100 µM) was resuspended in buffer (50 mM HEPES at pH 9.0) in a scintillation vial. The reaction was started by addition of enzyme (final concentration 6 ppm). The reaction was incubated for up to 10 minutes at 37°C with 200 rpm agitation and the conversion was monitored using an oxygen sensor. The TON (in s-1) were calculated as the ratio between the initial rate of oxygen consumption (in µM/s) and the concentration of enzyme (in µM). […]

CCCCCCCC/C=C\CCCCCCCC(=O)O [Oleic Acid]
Oleic Acid, TON [1]: 0.00 s⁻¹
Oleic Acid, TON [2]: 0.14 s⁻¹

CCCCCCCCCCCCCCCC(=O)O [Palmitic Acid]
Palmitic Acid, TON [1]: 0.21 s⁻¹
Palmitic Acid, TON [2]: 1.01 s⁻¹

CCCCCCCCCCCCCCCCCC(=O)O [Stearic Acid]
Stearic Acid, TON [1]: 0.03 s⁻¹
Stearic Acid, TON [2]: 0.47 s⁻¹
